According to ChEMBL document CHEMBL1268886, “Evaluation of amide replacements in CCR5 antagonists as a means to increase intrinsic permeability. Part 2: SAR optimization and pharmacokinetic profile of a homologous azacyle series” (Bioorg Med Chem Lett, 2010):

Assays:
[1] = system: Human immunodeficiency virus; experiment: Antiviral activity against HIV; format: functional, organism-based
[2] = biological target: C-C chemokine receptor type 5 (Homo sapiens, UniProt P51681); experiment: Inhibition of RANTES
Sequence of C-C chemokine receptor type 5 (P51681 whole entry): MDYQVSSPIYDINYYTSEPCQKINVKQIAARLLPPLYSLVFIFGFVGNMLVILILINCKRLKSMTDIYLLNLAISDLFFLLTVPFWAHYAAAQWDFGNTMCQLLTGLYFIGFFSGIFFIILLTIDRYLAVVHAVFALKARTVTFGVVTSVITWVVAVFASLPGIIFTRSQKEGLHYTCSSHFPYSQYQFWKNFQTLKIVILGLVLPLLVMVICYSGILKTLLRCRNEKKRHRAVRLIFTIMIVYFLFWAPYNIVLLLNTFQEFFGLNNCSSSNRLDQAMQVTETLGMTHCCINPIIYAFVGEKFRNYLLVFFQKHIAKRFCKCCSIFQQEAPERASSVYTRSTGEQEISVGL

Caco-2 = experiment: (§1) Apparent permeability of the compound from apical to basolateral side in human Caco-2 cell membrane after 21 days; settings: caco-2
[3] = as §1; settings: Caco-2, Papp
[4] = Metabolic stability in dog liver microsomes assessed as intrinsic clearance; format: ADME, Canis lupus familiaris, Microsome
[5] = Clearance in dog at 5 mg/kg, po and 1 mg/kg, iv; format: ADME, organism-based, Canis lupus familiaris; settings: in vivo
[6] = biological target: Voltage-gated inwardly rectifying potassium channel KCNH2 (Homo sapiens, UniProt Q12809); experiment: Inhibition of human ERG
Sequence of Voltage-gated inwardly rectifying potassium channel KCNH2 (Q12809 whole entry): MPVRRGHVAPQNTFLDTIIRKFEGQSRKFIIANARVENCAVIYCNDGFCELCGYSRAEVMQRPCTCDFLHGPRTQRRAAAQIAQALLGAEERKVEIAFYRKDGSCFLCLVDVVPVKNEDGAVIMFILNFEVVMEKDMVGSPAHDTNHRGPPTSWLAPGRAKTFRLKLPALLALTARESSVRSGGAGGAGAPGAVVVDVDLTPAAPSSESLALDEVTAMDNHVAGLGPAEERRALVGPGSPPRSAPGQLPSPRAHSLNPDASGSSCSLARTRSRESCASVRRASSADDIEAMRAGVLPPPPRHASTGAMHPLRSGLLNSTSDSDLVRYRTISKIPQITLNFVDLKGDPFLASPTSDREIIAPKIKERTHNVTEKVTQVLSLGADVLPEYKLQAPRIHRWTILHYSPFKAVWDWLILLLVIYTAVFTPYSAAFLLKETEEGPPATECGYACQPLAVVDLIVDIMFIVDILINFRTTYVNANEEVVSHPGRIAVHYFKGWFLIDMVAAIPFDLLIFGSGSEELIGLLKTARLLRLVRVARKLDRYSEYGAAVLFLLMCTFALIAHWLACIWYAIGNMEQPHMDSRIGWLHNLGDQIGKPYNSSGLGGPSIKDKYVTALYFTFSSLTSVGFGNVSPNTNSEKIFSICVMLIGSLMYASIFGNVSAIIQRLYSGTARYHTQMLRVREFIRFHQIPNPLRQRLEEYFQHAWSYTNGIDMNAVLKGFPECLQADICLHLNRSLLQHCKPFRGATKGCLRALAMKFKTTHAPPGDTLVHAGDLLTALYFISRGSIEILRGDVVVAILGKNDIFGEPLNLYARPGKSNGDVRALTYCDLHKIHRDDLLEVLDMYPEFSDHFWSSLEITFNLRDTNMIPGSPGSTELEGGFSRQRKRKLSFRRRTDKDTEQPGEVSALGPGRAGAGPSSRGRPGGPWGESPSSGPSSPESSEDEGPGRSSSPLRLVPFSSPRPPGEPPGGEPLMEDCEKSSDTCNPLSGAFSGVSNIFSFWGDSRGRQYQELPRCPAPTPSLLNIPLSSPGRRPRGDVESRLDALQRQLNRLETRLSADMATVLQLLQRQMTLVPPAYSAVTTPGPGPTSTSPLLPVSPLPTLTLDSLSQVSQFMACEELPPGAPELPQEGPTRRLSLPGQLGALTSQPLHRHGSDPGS

[7] = Oral bioavailability in rat at 10 mg/kg, po and 1 mg/kg, iv; format: ADME, organism-based; settings: in vivo
[8] = Oral bioavailability in dog at 5 mg/kg, po and 1 mg/kg, iv; format: ADME, organism-based, Canis lupus familiaris; settings: in vivo
Rattus norvegicus = experiment: Clearance in rat at 10 mg/kg, po and 1 mg/kg, iv; format: ADME, organism-based; settings: in vivo
[9] = Metabolic stability in rat liver microsomes assessed as intrinsic clearance; format: ADME, Microsome
[10] = Half life in dog at 1 mg/kg, iv; format: ADME, organism-based, Canis lupus familiaris; design: dose 1 mg/kg, route intravenous; settings: in vivo
[11] = Metabolic stability in human liver microsomes assessed as intrinsic clearance; format: ADME, Microsome
[12] = Cmax in dog at 5 mg/kg, po and 1 mg/kg, iv; format: ADME, organism-based, Canis lupus familiaris; settings: in vivo
[13] = Cmax in rat at 10 mg/kg, po and 1 mg/kg, iv; format: ADME, organism-based; settings: in vivo
[14] = Half life in rat at 1 mg/kg, iv; format: ADME, organism-based; design: dose 1 mg/kg, route intravenous; settings: in vivo

Row | Structure (SMILES) | IC50 ([1]; Human immunodeficiency virus 1) | IC50 [2] | other results
1 | Cc1ncnc(C)c1C(=O)N1C[C@H]2CN(CCC(c3cc(F)cc(F)c3)C3CN(S(=O)(=O)C4CC4)C3)C[C@H]2C1 (stereo not given in full) | 90 nM | 35 nM | –
2 | Cc1ncnc(C)c1C(=O)N1C[C@H]2CN(CCC(c3ccccc3)C3CN(C(=O)C4CCCC4)C3)C[C@H]2C1 (stereo not given in full) | – | 207 nM | –
3 | Cc1cc(=O)oc(C)c1C(=O)N1C[C@H]2CN(CCC(c3ccccc3)C3CCN(S(C)(=O)=O)CC3)C[C@H]2C1 (stereo not given in full) | 37 nM | 27 nM | –
4 | Cc1ncnc(C)c1C(=O)N1C[C@H]2CN(CCC(c3ccccc3)C3CN(S(C)(=O)=O)C3)C[C@H]2C1 (stereo not given in full) | > 625 nM | 52 nM | –
5 | Cc1ncnc(C)c1C(=O)N1C[C@H]2CN(CCC(c3cc(F)cc(F)c3)C3CCN(CC(F)F)CC3)C[C@H]2C1 (stereo not given in full) | 20 nM | 25 nM | –
6 | Cc1ncnc(C)c1C(=O)N1C[C@H]2CN(CCC(c3ccccc3)C3CCN(S(=O)(=O)C4CCCC4)CC3)C[C@H]2C1 (stereo not given in full) | 59 nM | 23 nM | –
7 | Cc1ncnc(C)c1C(=O)N1C[C@H]2CN(CCC(c3cccc(F)c3)C3CCN(CC(F)F)CC3)C[C@H]2C1 (stereo not given in full) | 14 nM | 35 nM | –
8 | Cc1ncnc(C)c1C(=O)N1C[C@H]2CN(CCC(c3cccc(F)c3)C3CN(S(=O)(=O)C4CC4)C3)C[C@H]2C1 (stereo not given in full) | 156 nM | 39 nM | –
9 | Cc1cc(C#N)nc(C)c1C(=O)N1C[C@H]2CN(CCC(c3ccccc3)C3CCN(S(C)(=O)=O)CC3)C[C@H]2C1 (stereo not given in full) | 4 nM | – | –
10 | Cc1ncnc(C)c1C(=O)N1C[C@H]2CN(CCC(c3cccc(F)c3)C3CCN(S(=O)(=O)c4ccccc4)CC3)C[C@H]2C1 (stereo not given in full) | 6 nM | 38 nM | –
11 | Cc1ncnc(C)c1C(=O)N1C[C@H]2CN(CCC(c3ccccc3)C3CN(S(=O)(=O)C4CCCC4)C3)C[C@H]2C1 (stereo not given in full) | 31 nM | 22 nM | Papp A→B [3]: 1.4 ×10⁻⁶ cm/s
12 | Cc1ncnc(C)c1C(=O)N1C[C@H]2CN(CCC(c3cccc(F)c3)C3CCN(S(C)(=O)=O)CC3)C[C@H]2C1 (stereo in doubt; 35) | 16 nM | 44 nM | –
13 | Cc1ncnc(C)c1C(=O)N1C[C@H]2CN(CCC(c3cccc(F)c3)C3CCN(S(C)(=O)=O)CC3)C[C@H]2C1 (stereo in doubt; 44) | – | > 500 nM | –
14 | Cc1ncnc(C)c1C(=O)N1C[C@H]2CN(CCC(c3ccccc3)C3CN(CC(F)(F)F)C3)C[C@H]2C1 (stereo not given in full) | – | > 500 nM | –
15 | Cc1ncnc(C)c1C(=O)N1C[C@H]2CN(CCC(c3cccc(F)c3)C3CCN(S(C)(=O)=O)CC3)C[C@H]2C1 (stereo in doubt; 43) | – | 32 nM | IC50 [1]: 17 nM; clearance [4]: 18 µL/min/mg; Papp A→B [3]: 0.5 ×10⁻⁶ cm/s; clearance [5]: 31 mL/min/kg; IC20 [6]: 15400 nM; bioavailability [7]: 6.6%; bioavailability [8]: 96%; clearance (Rattus norvegicus): 40 mL/min/kg; microsomal CLint [9]: 40 µL/min/mg; half-life [10]: 4 h; microsomal CLint [11]: 60 µL/min/mg; Cmax [12]: 1300 ng/mL; Cmax [13]: 110 ng/mL; half-life [14]: 0.37 h
16 | Cc1ncnc(C)c1C(=O)N1C[C@H]2CN(CCC(c3ccccc3)C3CN(S(=O)(=O)C4CC4)C3)C[C@H]2C1 (stereo not given in full) | 103 nM | 40 nM | –

More lines, main results first:

Row | IC50 ([1]; Human immunodeficiency virus 1) | IC50 [2] | Structure (SMILES) | other results
17 | – | > 500 nM | Cc1ncnc(C)c1C(=O)N1C[C@H]2CN(CCC(c3ccccc3)C3CCN(S(C)(=O)=O)CC3)C[C@H]2C1 (stereo in doubt; 42) | IC50 [1]: > 5000 nM
18 | – | 25 nM | Cc1ncnc(C)c1C(=O)N1C[C@H]2CN(CCC(c3ccccc3)C3CCN(S(C)(=O)=O)CC3)C[C@H]2C1 (stereo in doubt; 41) | IC50 [1]: 42 nM; Papp (Caco-2): 0.5 ×10⁻⁶ cm/s
19 | 39 nM | 25 nM | CCS(=O)(=O)N1CCC(C(CCN2C[C@@H]3CN(C(=O)c4c(C)ncnc4C)C[C@@H]3C2)c2ccccc2)CC1 (stereo not given in full) | –
20 | 100 nM | 23 nM | Cc1ncnc(C)c1C(=O)N1C[C@H]2CN(CCC(c3ccccc3)C3CN(S(=O)(=O)C(C)C)C3)C[C@H]2C1 (stereo not given in full) | –
21 | 207 nM | 48 nM | Cc1ncnc(C)c1C(=O)N1C[C@H]2CN(CCC(c3ccccc3)C3CCN(S(=O)(=O)CC(F)(F)F)CC3)C[C@H]2C1 (stereo not given in full) | –
22 | – | 34 nM | Cc1ncnc(C)c1C(=O)N1C[C@H]2CN(CCC(c3ccccc3)C3CCN(S(C)(=O)=O)CC3)C[C@H]2C1 (stereo in doubt; 34) | IC50 [1]: 43 nM; Papp A→B [3]: 0.87 ×10⁻⁶ cm/s
23 | 55 nM | 27 nM | Cc1ncnc(C)c1C(=O)N1C[C@H]2CN(CCC(c3ccccc3)C3CCN(CC(F)F)CC3)C[C@H]2C1 (stereo not given in full) | –
24 | – | 72 nM | Cc1ncnc(C)c1C(=O)N1C[C@H]2CN(CCC(c3ccccc3)C3CCN(C(=O)C(C)C)CC3)C[C@H]2C1 (stereo not given in full) | –
25 | 48 nM | 47 nM | Cc1ncnc(C)c1C(=O)N1C[C@H]2CN(CCC(c3ccccc3)C3CCN(S(=O)(=O)C(C)C)CC3)C[C@H]2C1 (stereo not given in full) | –
26 | – | > 500 nM | Cc1ncnc(C)c1C(=O)N1C[C@H]2CN(CCC(c3ccccc3)C3CCN(C(=O)NC(C)C)CC3)C[C@H]2C1 (stereo not given in full) | –
27 | – | 32 nM | CCC(=O)N1CCC(C(CCN2C[C@@H]3CN(C(=O)c4c(C)ncnc4C)C[C@@H]3C2)c2ccccc2)CC1 (stereo not given in full) | –
28 | 71 nM | 27 nM | Cc1ncnc(C)c1C(=O)N1C[C@H]2CN(CCC(c3ccccc3)C3CCN(S(=O)(=O)C4CC4)CC3)C[C@H]2C1 (stereo not given in full) | –
29 | 64 nM | 17 nM | Cc1ncnc(C)c1C(=O)N1C[C@H]2CN(CCC(c3ccccc3)C3CCN(CC(F)(F)F)CC3)C[C@H]2C1 (stereo not given in full) | –
30 | – | 68 nM | Cc1ncnc(C)c1C(=O)N1C[C@H]2CN(CCC(c3ccccc3)C3CCN(C(=O)CC(C)C)CC3)C[C@H]2C1 (stereo not given in full) | –
31 | – | 102 nM | COC(=O)N1CCC(C(CCN2C[C@@H]3CN(C(=O)c4c(C)ncnc4C)C[C@@H]3C2)c2ccccc2)CC1 (stereo not given in full) | –
32 | – | > 500 nM | Cc1ncnc(C)c1C(=O)N1C[C@H]2CN(CCC(c3ccccc3)C3CN(C(=O)CC(C)C)C3)C[C@H]2C1 (stereo not given in full) | –
